Reference: EP4603105A1, “PHARMACEUTICAL COMPOSITION CONTAINING CYCLIC COMPOUND HAVING SELECTIVE KRAS INHIBITORY EFFECT AGAINST HRAS AND NRAS” (CHUGAI SEIYAKU KABUSHIKI KAISHA, priority 2022, dated 2024)
pIC50, pKd: −log10 of the molar value.

Assays:
[1] = molecular target: GDP-bound KRAS wild-type protein (Homo sapiens, UniProt P01116); assay: Binding to KRAS by surface plasmon resonance (SPR), dissociation constant KD; details: 1:1 binding model
Procedure, shortened: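 Affinity is measured by surface plasmon resonance at 30°C against captured, GDP-loaded RAS carrying a biotinylated Avi tag. Compounds are titrated by single-cycle kinetics, and KD comes from a 1:1 fit.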

[2] = molecular target: GDP-bound NRAS wild-type protein (Homo sapiens, UniProt P01111); assay: Binding to NRAS by surface plasmon resonance (SPR), KD and KD ratio to KRAS; details: ratio of KD for GDP-bound NRAS wild-type protein to KD for KRAS
GDP-bound NRAS wild-type protein, sequence (P01111 whole entry): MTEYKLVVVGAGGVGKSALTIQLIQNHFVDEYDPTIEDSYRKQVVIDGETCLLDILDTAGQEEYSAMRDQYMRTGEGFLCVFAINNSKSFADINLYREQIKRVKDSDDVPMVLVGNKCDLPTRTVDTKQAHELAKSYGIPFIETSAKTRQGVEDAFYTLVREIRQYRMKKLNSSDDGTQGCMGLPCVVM
Procedure, shortened: (§1)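 Each cycle, GDP-bound biotin-Avi RAS was captured (~100–300 RU), compound concentrations were injected low to high for 75 s each at 100 µL/min, then the chip was regenerated. Buffer: HBS pH 7.4, 10 mM MgCl2, 10 µM GDP, 1 mM DTT, 4% DMSO; 30°C. KD from a 1:1 binding model.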

HRAS wild-type protein = HRAS wild-type protein (Homo sapiens, UniProt P01112); assay: Binding to HRAS by surface plasmon resonance (SPR), KD and KD ratio to KRAS; details: ratio of KD for HRAS wild-type protein to KD for KRAS
HRAS wild-type protein, sequence (P01112 whole entry): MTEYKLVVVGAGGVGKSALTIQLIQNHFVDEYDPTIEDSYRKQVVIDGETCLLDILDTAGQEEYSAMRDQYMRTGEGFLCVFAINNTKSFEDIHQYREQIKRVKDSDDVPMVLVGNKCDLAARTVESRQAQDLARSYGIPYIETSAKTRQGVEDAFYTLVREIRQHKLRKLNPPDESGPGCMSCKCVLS
Procedure, shortened: as §1

[3] = system: human lung cancer strain NCI-H441; assay: NCI-H441 cell proliferation inhibitory activity (CellTiter-Glo, 4 days); type: cell-based; details: NCI-H441 cells, 4 days, read-out: NCl-H441 IC50
Procedure, shortened: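 Signal came from […] measured per well once the reagent was added. Beforehand, cells were cultured at 37°C and 5% carbon dioxide on a compound series serially diluted in dimethyl sulfoxide.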

GDP-bound KRAS wild-type protein, sequence (P01116 1-188 isoform P01116-2): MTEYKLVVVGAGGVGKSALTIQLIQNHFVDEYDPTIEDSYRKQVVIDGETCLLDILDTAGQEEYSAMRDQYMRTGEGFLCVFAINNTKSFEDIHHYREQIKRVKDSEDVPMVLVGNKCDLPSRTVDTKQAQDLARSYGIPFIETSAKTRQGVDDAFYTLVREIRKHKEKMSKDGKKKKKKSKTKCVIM

| Compound | pKd [1] | NRAS /KRAS [2] | HRAS /KRAS (HRAS wild-type protein) | pIC50 [3] |
| --- | --- | --- | --- | --- |
| CCCOC[C@H]1C(=O)N[C@@H]([C@@H](C)CC)C(=O)N(C)CC(=O)N(C)[C@H]2C/C=C\CCN(C2=O)[C@@H](CC2CCC(F)(F)CC2)C(=O)N(C)CC(=O)N[C@@H](CCc2ccc(C(F)(F)F)c(Cl)c2)C(=O)N2C[C@H](OCC)C[C@H]2C(=O)NC2(CC(C)(C)C2)C(=O)N(C)[C@@H](C(CC)CC)C(=O)N(C)[C@H](C(=O)N(C)C)CC(=O)N1C [PP2484] | 9.00 | A (a compound having 10 or more and less than 20 is denoted as A) | A (a compound having 10 or more and less than 20 is denoted as A) | 7.13 |
| CCO[C@@H]1C[C@H]2C(=O)NC3(CC(C)(C)C3)C(=O)N(C)[C@@H](C(CC)CC)C(=O)N(C)[C@H](C(=O)N(C)C)CC(=O)N(C)[C@@H](CC3CC3)C(=O)N[C@@H]([C@@H](C)CC)C(=O)N(C)CC(=O)N(C)[C@H]3C/C=C\CCN(C3=O)[C@@H](CC3CCC(F)(F)CC3)C(=O)N(C)CC(=O)N[C@@H](CCc3cc(F)c(C(F)(F)F)c(F)c3)C(=O)N2C1 [PP2485] | 9.11 | A (a compound having 10 or more and less than 20 is denoted as A) | A (a compound having 10 or more and less than 20 is denoted as A) | 7.26 |
| CCCOC[C@H]1C(=O)N[C@@H]([C@@H](C)CC)C(=O)N(C)CC(=O)N(C)[C@H]2C/C=C\CCN(C2=O)[C@@H](CC2CCC(F)(F)CC2)C(=O)N(C)CC(=O)N[C@@H](CCc2cc(F)c(C(F)(F)F)c(F)c2)C(=O)N2C[C@@H](C)C[C@H]2C(=O)NC2(CC(C)(C)C2)C(=O)N(C)[C@@H](C(CC)CC)C(=O)N(C)[C@H](C(=O)N(C)C)CC(=O)N1C [PP2490] | 8.77 | AA (a compound having 20 or more is denoted as AA) | A (a compound having 10 or more and less than 20 is denoted as A) | 6.79 |
| CCO[C@@H]1C[C@H]2C(=O)NC3(CC(C)(C)C3)C(=O)N(C)[C@@H](C(CC)CC)C(=O)N(C)[C@H](C(=O)N(C)C)CC(=O)N(C)[C@@H](C(C)C)C(=O)N[C@@H]([C@@H](C)CC)C(=O)N(C)CC(=O)N(C)[C@H]3C/C=C\CCN(C3=O)[C@@H](CC3CCC(F)(F)CC3)C(=O)N(C)CC(=O)N[C@@H](CCc3ccc(C(F)(F)F)c(Cl)c3)C(=O)N2C1 [PP2492] | 8.62 | AA (a compound having 20 or more is denoted as AA) | A (a compound having 10 or more and less than 20 is denoted as A) | 7.12 |
| CCC(CC)[C@H]1C(=O)N(C)[C@H](C(=O)N(C)C)CC(=O)N(C)[C@@H](CC2CC2)C(=O)N[C@@H]([C@@H](C)CC)C(=O)N(C)CC(=O)N(C)[C@H]2C/C=C\CCN(C2=O)[C@@H](CC2CCC(F)(F)CC2)C(=O)N(C)CC(=O)N[C@@H](CCc2ccc(C(F)(F)F)c(OC)c2)C(=O)N2C[C@@H](C)C[C@H]2C(=O)NC2(CC(C)(C)C2)C(=O)N1C [PP2494] | 8.74 | A (a compound having 10 or more and less than 20 is denoted as A) | A (a compound having 10 or more and less than 20 is denoted as A) | 7.40 |
| CCO[C@@H]1C[C@H]2C(=O)NC3(CC(C)(C)C3)C(=O)N(C)[C@@H](C(CC)CC)C(=O)N(C)[C@H](C(=O)N(C)C)CC(=O)N(C)[C@@H](CC3CC3)C(=O)N[C@@H]([C@@H](C)CC)C(=O)N(C)CC(=O)N(C)[C@H]3C/C=C\CCN(C3=O)[C@@H](CC3CCC(F)(F)CC3)C(=O)N(C)CC(=O)N[C@@H](CCc3ccc(C(F)(F)F)c(Cl)c3)C(=O)N2C1 [PP2495] | 9.08 | A (a compound having 10 or more and less than 20 is denoted as A) | A (a compound having 10 or more and less than 20 is denoted as A) | 7.76 |
| CCC(CC)[C@H]1C(=O)N(C)[C@H](C(=O)N(C)C)CC(=O)N(C)[C@@H](C(C)C)C(=O)N[C@@H]([C@@H](C)CC)C(=O)N(C)CC(=O)N(C)[C@H]2C/C=C\CCN(C2=O)[C@@H](CC2CCC(F)(F)CC2)C(=O)N(C)CC(=O)N[C@@H](CCc2cc(F)c(C(F)(F)F)c(F)c2)C(=O)N2C[C@@H](C)C[C@H]2C(=O)NC2(CC(C)(C)C2)C(=O)N1C [PP2496] | 8.21 | A (a compound having 10 or more and less than 20 is denoted as A) | A (a compound having 10 or more and less than 20 is denoted as A) | 7.01 |
| CCC[C@H]1C(=O)N[C@@H]([C@@H](C)CC)C(=O)N(C)CC(=O)N(C)[C@H]2C/C=C\CCN(C2=O)[C@@H](CC2CCC(F)(F)CC2)C(=O)N(C)CC(=O)N[C@@H](CCc2ccc(C(F)(F)F)c(OC)c2)C(=O)N2C[C@@H](C)C[C@H]2C(=O)NC2(CC(C)(C)C2)C(=O)N(C)[C@@H](C(CC)CC)C(=O)N(C)[C@H](C(=O)N(C)C)CC(=O)N1C [PP2497] | 8.82 | A (a compound having 10 or more and less than 20 is denoted as A) | A (a compound having 10 or more and less than 20 is denoted as A) | 7.07 |
| CCC[C@H]1C(=O)N[C@@H]([C@@H](C)CC)C(=O)N(C)CC(=O)N(C)[C@H]2C/C=C\CCN(C2=O)[C@@H](CC2CCC(F)(F)CC2)C(=O)N(C)CC(=O)N[C@@H](CCc2ccc(C(F)(F)F)c(Cl)c2)C(=O)N2C[C@H](OCC)C[C@H]2C(=O)NC2(CC(C)(C)C2)C(=O)N(C)[C@@H](C(CC)CC)C(=O)N(C)[C@H](C(=O)N(C)C)CC(=O)N1C [PP2498] | 9.17 | A (a compound having 10 or more and less than 20 is denoted as A) | A (a compound having 10 or more and less than 20 is denoted as A) | 7.66 |
| CCC(CC)[C@H]1C(=O)N(C)[C@H](C(=O)N(C)C)CC(=O)N(C)[C@@H](CC2CC2)C(=O)N[C@@H]([C@@H](C)CC)C(=O)N(C)CC(=O)N(C)[C@H]2C/C=C\CCN(C2=O)[C@@H](CC2CCC(F)(F)CC2)C(=O)N(C)CC(=O)N[C@@H](CCc2cc(F)c(C(F)(F)F)c(F)c2)C(=O)N2C[C@@H](C)C[C@H]2C(=O)NC2(CC(C)(C)C2)C(=O)N1C [PP2500] | 8.77 | A (a compound having 10 or more and less than 20 is denoted as A) | A (a compound having 10 or more and less than 20 is denoted as A) | 6.90 |
| CCCOC[C@H]1C(=O)N[C@@H]([C@@H](C)CC)C(=O)N(C)CC(=O)N(C)[C@H]2C/C=C\CCN(C2=O)[C@@H](CC2CCCCC2)C(=O)N(C)CC(=O)N[C@@H](CCc2cc(F)c(C(F)(F)F)c(F)c2)C(=O)N2C[C@H](OCC)C[C@H]2C(=O)NC2(CC(C)(C)C2)C(=O)N(C)[C@@H](C(CC)CC)C(=O)N(C)[C@H](C(=O)N(C)C)CC(=O)N1C [PP2501] | 8.74 | AA (a compound having 20 or more is denoted as AA) | A (a compound having 10 or more and less than 20 is denoted as A) | 6.74 |
| CC[C@H](C)[C@@H]1NC(=O)[C@H](COC)N(C)C(=O)C[C@@H](C(=O)N(C)C)N(C)C(=O)[C@H](C2CCCC2)N(C)C(=O)C2(CC(C)(C)C2)NC(=O)[C@@H]2C[C@H](C)CN2C(=O)[C@H](CCc2ccc(C(F)(F)F)c(Cl)c2)NC(=O)CN(C)C(=O)[C@H](Cc2ccc(C)cc2)N2CC/C=C\C[C@@H](C2=O)N(C)C(=O)CN(C)C1=O [PP2502] | 10.19 | A (a compound having 10 or more and less than 20 is denoted as A) | A (a compound having 10 or more and less than 20 is denoted as A) | 8.10 |
| CCOC[C@H]1C(=O)N[C@@H]([C@@H](C)CC)C(=O)N(C)CC(=O)N(C)[C@H]2C/C=C\CCN(C2=O)[C@@H](Cc2ccc(C)cc2)C(=O)N(C)CC(=O)N[C@@H](CCc2ccc(C(F)(F)F)c(OC)c2)C(=O)N2C[C@@H](C)C[C@H]2C(=O)NC2(CC(C)(C)C2)C(=O)N(C)[C@@H](C2CCCC2)C(=O)N(C)[C@H](C(=O)N(C)C)CC(=O)N1C [PP2505] | 9.89 | A (a compound having 10 or more and less than 20 is denoted as A) | B (a compound having 3 or more and less than 10 is denoted as B) | 7.76 |
| CC[C@H](C)[C@@H]1NC(=O)[C@H](COC)N(C)C(=O)C[C@@H](C(=O)N(C)CC)N(C)C(=O)[C@H](C2CCCC2)N(C)C(=O)C2(CC(C)(C)C2)NC(=O)[C@@H]2C[C@H](C)CN2C(=O)[C@H](CCc2ccc(C(F)(F)F)c(Cl)c2)NC(=O)CN(C)C(=O)[C@H](Cc2ccc(C)cc2)N2CC/C=C\C[C@@H](C2=O)N(C)C(=O)CN(C)C1=O [PP2506] | 9.89 | A (a compound having 10 or more and less than 20 is denoted as A) | A (a compound having 10 or more and less than 20 is denoted as A) | 7.97 |
